Experimental data published in patent publication US20080300298A1, “Honokiol Derivates For the Treatment of Proliferative Disorders” (priority 2005, published 2008).

Columns and labels:
[1] = system: tumor cells isolated from patients with relapsed refractory MM; test: cytotoxicity against patient MM cells (CD38high, flow cytometry); format: cell-based, human; settings: 8 ug/ml, 48 h, N=6, mean ±SD
Protocol: Assessment of HNK-induced cytotoxicity against patient MM cells: Cytotoxicity of HNK against fresh MM cells was determined as previously determined, see, for example, Mitsiades et al Cancer Cell. 2004; 5:221-230. Fresh MNCs separated from bone marrow samples derived from patients with MM were incubated with PE-conjugated anti-CD138 antibody and/or FITC-conjugated anti-CD38 antibody (BD Biosciences, San Diego, Calif.) for 30 minutes on ice and washed, followed by analysis using EPICS XL flow cytometer (Beckman Coulter, Hialeah, Fla.). A CD38^high fraction enriched for MM cells was determined in side and forward scatter panel in each case. The expression of CD138 on gated cells was also evaluated. After HNK-treatment for 48 h, cells were harvested and percentage of CD38^high cells with or without HNK-treatment was evaluated. […] Cells were stained with propidium iodide (PI; 50 μg/mL; Sigma, St Louis, Mo.), and cell cycle profile was determined by using the program M software on an EPICS XL flow cytometer (Beckman Coulter, Hialeah, Fla.). […] Fluorescence intensity of TUNEL and APO 2.7 staining was determined using on EPICS XL flow cytometer. Cytotoxicity was determined by trypan blue exclusion assay. […] Cell growth and induction of apoptosis were determined both by colorimetric assay and now cytometric detection of APO2.7 after 48 h treatment. […] DNA synthesis was measured by [^3H]-thymidine uptake. […]

KBM-5 cells = test: Live and dead assay; format: cell-based, human; settings: KBM-5, TNF 1 nM with honokiol (10 mM printed); TNF alone 5%
Protocol: (D) depicts that honokiol enhances TNF-induced cell death.
Live and dead assay. The Live and Dead assay (Molecular Probes), which determines intracellular esterase activity and plasma membrane integrity, was used to measure apoptosis. […] It also uses the […] (red fluorescence), which can enter cells only through damaged membranes and bind to nucleic acids but is excluded by the intact plasma membrane of live cells. Briefly, 1×10^5 cells were incubated with […] honokiol for 24 h and then treated with 1 nM TNF for 16 h at 37° C. Cells were stained with the Live and Dead reagent (5 mM ethidium homodimer, 5 mM calcein-AM) and then incubated at 37° C. for 30 min. Cells were analyzed under a fluorescence microscope (Labophot-2, Nikon, Tokyo, Japan).
By using caspase-activated PARP cleavage, it was shown that the enhanced cytotoxicity was due to apoptosis. TNF-induced PARP cleavage was enhanced in the honokiol-treated cells (FIG. 26C).

## C=CCc1ccc(O)c(-c2ccc(O)c(CC=C)c2)c1 [HNK, Honokiol]
[1]
  percentage of CD38high cells compared to control cultures: 26.2±15.8%
KBM-5 cells
  TNF-induced apoptosis (Live/Dead assay): 65%
